Columns and labels:
[1] = tested on: duplex oligonucleotides Pu-GAAATC-Py and Pu-GAAATG-Py; test: Oligonucleotide binding/alkylation assay
[2] = Exploratory single dose free drug toxicology study in rats; format: in vivo, rat; conditions: for reticulocytes: all doses, 72 hours post-dose; for reticulocyte recovery: by 168 hours post-dose; for MTD at 7 day: rat, in vivo
Procedure: An exploratory single dose toxicology study was conducted in rats comparing the C-1 (PBD bis alkylator) and DM-2 (PBD monoalkylator) free drugs. Animals received a single IV dose of C-1, DM-2, or vehicle and were monitored for a 7-day recovery period.
Toxicity was assessed by clinical observations and clinical pathology (hematology and clinical chemistry at 72 and 168 hours post-dose). In general, results were similar for DM-2 at ten times the dose level of C-1.

[3] = 100 μM compound, 50 μM DNA, 1 hour, 37° C.

C=C1C[C@H]2CNc3cc(OCCCCCOc4cc5c(cc4OC)C(=O)N4CC(=C)C[C@H]4CN5)c(OC)cc3C(=O)N2C1 [C-3, (11aS,11a′S)-8,8′-(pentane-1,5-diylbis(oxy))bis(7-methoxy-2-methylene-1,2,3,10,11,11a-hexahydro-5H-benzo[e]pyrrolo[1,2-a][1,4]diazepin-5-one)]
DNA binding ([1]; imine bonds of C-1 reduced): completely eliminates DNA binding

C=C1C[C@H]2C=Nc3cc(OCCCCCOc4cc5c(cc4OC)C(=O)N4CC(=C)C[C@H]4C(=O)N5)c(OC)cc3C(=O)N2C1 [DM-2, (S)-7-methoxy-8-((5-(((S)-7-methoxy-2-methylene-5-oxo-2,3,5,11a-tetrahydro-1H-benzo[e]pyrrolo[1,2-a] [1,4]diazepin-8-yl)oxy)pentyl)oxy)-2-methylene-2,3-dihydro-1H-benzo[e]pyrrolo[1,2-a] [1,4]diazepine-5,11(10H,11aH)-dione]
clinical pathology ([2]; 2 mg/kg): clinical pathology changes indicative of liver and kidney toxicity | outcome ([2]; 2 mg/kg): euthanized in moribund condition on Day 4 | body weight loss ([2]; 2 mg/kg, Day 2 to 4): approximately 14% | tolerability ([2]; 0.5 and 1 mg/kg, single IV dose): well tolerated | reticulocytes [2]: dose-dependent decrease in reticulocytes | reticulocyte recovery [2]: recovered in the 0.5 and 1 mg/kg groups | MTD at 7 day ([2]; single IV dose): 1 mg/kg | main target organs ([2]; single IV dose): bone marrow, kidney, and liver

C=C1C[C@H]2C=Nc3cc(OCCCCCOc4cc5c(cc4OC)C(=O)N4CC(=C)C[C@H]4C=N5)c(OC)cc3C(=O)N2C1 [C-1, (11aS,11a′S)-8,8′-(pentane-1,5-diylbis(oxy))bis(7-methoxy-2-methylene-1,2,3,11a-tetrahydro-5H-benzo[e]pyrrolo[1,2-a][1,4]diazepin-5-one), reference compound]
more efficiency to covalently alkylate the duplex oligonucleotides than monoamine DM-1 [1, 3]: 2-3 times | clinical pathology ([2]; 0.2 mg/kg): clinical pathology changes indicative of liver and kidney toxicity | tolerability ([2]; 0.05 and 0.1 mg/kg, single IV dose): well tolerated with no clinical signs | reticulocytes [2]: dose-dependent decrease in reticulocytes | reticulocyte recovery [2]: recovering in the 0.05 and 0.1 mg/kg groups | MTD at 7 day ([2]; single IV dose): 0.1 mg/kg | main target organs ([2]; single IV dose): bone marrow, kidney, and liver | toxic potency relative to DM-2 ([2]; single IV dose): approximately ten times as potent as DM-2

C=C1C[C@H]2C=Nc3cc(OC)c(OC)cc3C(=O)N2C1 [C-2, (S)-7,8-dimethoxy-2-methylene-1,2,3,11a-tetrahydro-5H-benzo[e]pyrrolo[1,2-a][1,4]diazepin-5-one]
less efficiency in covalently alkylating the duplex oligonucleotides than dimer C-1 [1, 3]: > 50 times

Source: patent publication US10639373B2, “Pyrrolobenzodiazepine antibody drug conjugates and methods of use” (priority 2015, dated 2020)
